US7074831B2, “Compounds, methods for their preparation and use thereof” (Active Biotech AB, priority 2004, dated 2006)
Read-outs that look alike come from different tables or passages of the source.

Columns and labels:
[1] = tested on: human T lymphoblast cell line (Jurkat); assay: Inhibition of T-cell proliferation (3H-TdR incorporation); type: cell-based; conditions: Jurkat cells; for IC50: 3 days, read-out: Inhibition of T-cell proliferation in vitro. IC50
Experimental: Inhibition of T cell proliferation was studied in a functional assay. A human T lymphoblast cell line (Jurkat) was cultured in the presence and absence of DHODH inhibiting compounds. Jurkat cells were seeded in microtiterplates at a concentration of 5×10^5/mL in RPMI 1640 growth media supplemented with ultraglutamin, 10% fetal calf serum, 1 mM sodium pyruvat, 10 mM HEPES and 0.1 mg/mL gentamycin. A dilution series of ten different concentrations of inhibitor was added to the wells and the plates were kept in a cell incubator for 3 days. At the beginning of the last 4 hours period, the cultures were pulsed with 10 μl/well 0.1Ci/mmol ^3H-TdR and then harvested on filter papers and counted with a β-counter. The IC50 values for each compound were calculated from the obtained dose response curves. Adding 50 μM uridine to the wells monitored the specificity for the mechanism. This reverses the antiproliferative effect by bypassing the DHODH enzyme using an external source of pyrimidine.
Inhibition of T cell proliferation was studied in a functional assay. Table 1 exemplifies the invention, without limiting the scope thereof. A human T lymphoblast cell line (Jurkat) was cultured in the presence of the compound to be screened. The IC50 value for each compound was calculated from the dose response curve. Adding uridine was used to monitor the specificity of the DHODH mechanism.

[2] = Determination of pharmacokinetic properties in the mouse (cassette dosing); type: in vivo; conditions: female, SJL/N Tac, plasma, iv, i.v. administration, nominal dose 1 mg/kg/compound
Experimental: Female mice (SJL/N Tac) were given a single intravenous or oral dose of a mixture of 4 or 6 compounds per cassette (nominal dose: 1 mg/kg/compound). The test items were formulated in physiological saline/5% Cremophor® to a final concentration of each 0.1 mg/mL. Blood samples were collected from vena cava (terminal bleed) into sodium heparinised tubes. The dose formulations and plasma concentrations of each compound were determined by LC-MS/MS. The pharmacokinetic parameters were determined by non-compartmental analysis using WinNonlin Professional (version 4.0.1).
The clearance (CL) and half-life (t1/2) of representative compounds in the mouse following i.v. administration are shown in Table 2. Table 2 exemplifies the invention, without limiting the scope thereof.

recombinant human DHODH = recombinant human DHODH (Homo sapiens, UniProt Q02127); assay: Inhibition assay of DHODH activity (DHO-driven reduction of DCIP); type: biochemical
Chain of recombinant human DHODH (Q02127 whole entry): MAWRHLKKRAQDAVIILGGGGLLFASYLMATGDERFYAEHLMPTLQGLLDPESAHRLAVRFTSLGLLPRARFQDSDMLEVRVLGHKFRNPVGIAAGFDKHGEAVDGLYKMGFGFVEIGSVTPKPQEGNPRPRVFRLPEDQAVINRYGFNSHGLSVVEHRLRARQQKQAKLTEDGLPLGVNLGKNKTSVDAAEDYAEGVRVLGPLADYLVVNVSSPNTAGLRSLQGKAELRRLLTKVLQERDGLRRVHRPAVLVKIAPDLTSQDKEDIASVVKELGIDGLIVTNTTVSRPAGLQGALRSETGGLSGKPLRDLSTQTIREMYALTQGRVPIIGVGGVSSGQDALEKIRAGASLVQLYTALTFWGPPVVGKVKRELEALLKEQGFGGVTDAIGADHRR
Experimental: Inhibition of recombinant human DHODH was assayed by the dihydroorotate (DHO) driven reduction of dichloroindophenol (DCIP), (Bruneau et al., 1998). The standard assay mixture contained 0.4 μg/mL recombinant protein, 50 mM Tris pH8, 100 μM decylubiquinone, 1 mM KCN, 200 μM DCIP and 0.1% Triton X-100. Inhibitory compounds were added at 10 different concentrations and the enzyme reaction initiated by the addition of 500 μM DHO. The reaction was allowed to continue for 10 minutes before the reduction of DCIP was measured in a microtiterplate reader as a decrease in absorbance at 650 nm. The IC50 values (concentration of inhibitor required for 50% inhibition) for each compound were calculated from the obtained dose response curves.

Row | Compound | IC50 ([1]; Homo sapiens, 72 h) [nM] | clearance [2] [mL/min/kg] | half-life [2] [h] | other results
1 | COc1ccc(OC)c(CCc2ccc(NC(C)=O)c(C(=O)O)c2)c1 [Compound H, 2-Acetylamino-5-[2-(2,5dimethoxy-phenyl)-ethyl]-benzoic acid, reference compound] | 12000 |  |  | inhibitory effect on T-cell proliferation (in words) [1]: very weak inhibitory effect
2 | CCC(=O)Nc1ccc(OCc2ccccc2OC(F)(F)F)cc1C(=O)O [Compound AC, 2-propionylamino-5-(2-trifluoromethoxy-benzyloxy)-benzoic acid] | 300 |  |  | 
3 | CCCNc1ccccc1COc1ccc(NC(=O)CC)c(C(=O)O)c1 [Compound U, 2-propionylamino-5-(2-propylamino-benzyloxy)-benzoic acid] | 110 |  |  | 
4 | CCCNc1ccccc1Oc1ccc(NC(=O)CC)c(C(=O)O)c1 [Compound T, 2-propionylamino-5-(2-propylamino-phenoxy)-benzoic acid] | 240 |  |  | 
5 | CCC(=O)Nc1ccc(Oc2ccccc2C(F)(F)F)cc1C(=O)O [Compound L, 2-propionylamino-5-(2-trifluoromethyl-phenoxy)-benzoic acid] | 780 | 0.25 | 3.1 | 
6 | CCC(=O)Nc1ccc(Sc2ccccc2C(F)(F)F)cc1C(=O)O [Compound O, 2-propionylamino-5-(2-trifluoromethyl-phenylsulfanyl)-benzoic acid] | 250 | 0.55 | 4.6 | 
7 | CCC(=O)Nc1ccc(COc2ccccc2OC(F)(F)F)cc1C(=O)O [Compound AD, 2-propionylamino-5-(2-trifluoromethoxy-phenoxymethyl)-benzoic acid] | 240 |  |  | 
8 | CCCNc1ccccc1Sc1ccc(NC(=O)CC)c(C(=O)O)c1 [Compound AA, 2-propionylamino-5-(2-propylamino-phenylsulfanyl)-benzoic acid] | 40 |  |  | 
9 | COc1ccc(OC)c(COc2ccc(O)c(C(=O)O)c2)c1 [5-(2,5-dimethoxy-benzyloxy)-2-hydroxy-benzoic acid] |  |  |  | DHODH inhibition (in words) (recombinant human DHODH): inactive
10 | CCC(=O)Nc1ccc(/C=C/c2ccccc2C(F)(F)F)cc1C(=O)O [Compound Q] |  |  |  | IC50 [1]: 110 nM
11 | CCC(=O)Nc1ccc(Cc2ccccc2)cc1C(=O)O [Compound AH, 5-Benzyl-2-propionylamino-benzoic acid] |  | 0.3 | 6.6 | 
12 | CCC(=O)Nc1ccc(OCc2ccccc2C(F)(F)F)cc1C(=O)O [Compound M, 2-propionylamino-5-(2-trifluoromethyl-benzyloxy)-benzoic acid] | 330 | 1.83 | 4.9 | 
13 | CCC(=O)Nc1ccc(/C=C/c2cccc(C(F)(F)F)c2)cc1C(=O)O [Compound R] |  |  |  | IC50 [1]: 450 nM
14 | CC(=O)Nc1ccc(CCc2ccccc2)cc1C(=O)O [Compound AF, 2-Acetylamino-5-phenethyl-benzoic acid, reference compound] |  | 16.2 | 0.29 | 
15 | CCC(=O)Nc1ccc(NCc2ccccc2C(F)(F)F)cc1C(=O)O [Compound K, 2-propionylamino-5-(2-trifluoromethyl-benzylamino)-benzoic acid] | 790 | 1.17 | 2.2 | 
16 | CCCN(CCC)c1ccccc1Oc1ccc(NC(=O)CC)c(C(=O)O)c1 [Compound AB, 5-(2-dipropylamino-phenoxy)-2-propionylamino-benzioc acid] |  |  |  | IC50 [1]: 150 nM
17 | CCC(=O)Nc1ccc(/C=C/c2ccccc2)cc1C(=O)O [Compound AG, 2-Propionylamino-5-[(E)-styryl]-benzoic acid] |  | 2 | 10 | 
18 | CCC(=O)Nc1ccc(Sc2ccccc2OC(F)(F)F)cc1C(=O)O [Compound AE, 2-propionylamino-5-(2-trifluoromethoxy-phenylsulfanyl)-benzioc acid] |  |  |  | IC50 [1]: 390 nM
19 | COc1ccc(OC)c(COc2ccc(NC(C)=O)c(C(=O)O)c2)c1 [Compound G, 2-acetylamino-5-(2,5-dimethoxy-benzyloxy)-benzoic acid, reference compound] | 6200 | 11.8 | 0.3 | inhibitory effect on T-cell proliferation (in words) [1]: only a weak inhibitory effect
20 | CCC(=O)Nc1ccc(CSc2ccccc2C(F)(F)F)cc1C(=O)O [Compound P, 2-propionylamino-5-(2-trifluoromethyl-phenylsulfanylmethyl)-benzoic acid] | 210 |  |  | 
21 | CCC(=O)Nc1ccc(Oc2cc(C(F)(F)F)cc(C(F)(F)F)c2)cc1C(=O)O [Compound S, 5-(3,5-bis-trifluoromethyl-phenoxy)-2-propionylamino-benzoic acid] | 140 |  |  | 
22 | CCC(=O)Nc1ccc(COc2ccccc2C(F)(F)F)cc1C(=O)O [Compound N, 2-propionylamino-5-(2-trifluoromethyl-phenoxymethyl)-benzoic acid] | 520 | 2.33 | 1.5 | 
23 | CCC(=O)Nc1ccc(CCc2ccccc2C(F)(F)F)cc1C(=O)O [Compound J, 2-propionylamino-5-[2-(2-trifluoromethyl-phenyl)-ethyl]-benzoic acid, reference compound] | 2900 |  |  | inhibitory effect on T-cell proliferation (in words) [1]: weak antiproliferative effect
